How the values were obtained:
IL-6 = assay: Spontaneous IL-6 release from synovial cells of RA patients; assay type: cell-based; settings: Homo sapiens, Synovial cell, freshly isolated synovial cells from RA patients, 16 hours
Description: Cytokine production in synovial cells obtained from rheumatoid arthritis patients undergoing knee replacement surgery, was measured as per the method described in reference, Lancet, 1989, 29, 244-247, the disclosure of which is incorporated herein by reference for the teaching of the assay. The synovial membrane tissue was digested by incubating at 37° C. for 3 hours in an atmosphere of 5% CO2, in Roswell Park Memorial Institute (RPMI) medium containing penicillin-G (100 U/mL), streptomycin (100 μg/mL), amphotericin B (50 ng/mL) (GIBCO), 1.33 mg/mL collagenase Type I (Worthington Biochemical Corporation, New Jersey, USA), 0.5 μg/mL DNAse Type I (SIGMA) and 8.33 U/mL heparin (Biological E. Limited, India). The digested tissue was then filtered through a membrane (mesh size 70 micron) (SIGMA), the cells were washed 3 times and suspended in complete medium (RPMI supplemented with 5% FCS and 5% human serum). The cell concentration was adjusted to 1×10^6 cells/mL. The viability as determined by trypan blue dye exclusion was uniform Ly≧98%. The cell suspension (100 μL) was added to the wells of a 96-well culture plate. […] The final concentration of DMSO was adjusted to 0.5%. The vehicle (0.5° A) DMSO) was used as control. SB 203580 (20 μM) was used as a standard. The plates were incubated for 16 hours at 37° C. in 5% CO2 atmosphere. […]

IκBα = assay: TNFα-induced IκBα phosphorylation and degradation, western blot in Jurkat cells; assay type: cell-based, human; settings: 0.1 μM, 0.1 nM TNF-α 0-90 minutes
Description: The method for IκBα degradation was designed as in reference, The Journal of Immunology, 1999, 103, 6800-6809, the disclosure of which is also incorporated by reference for the teaching of the assay.
Human Jurkat T-cells from American Type Culture Collection (ATCC) were cultivated in Rosewell Park Memorial Institute (RPMI) medium supplemented with 10% fetal bovine serum (FBS), penicillin (100 U/mL) and streptomycin (100 μg/mL) at 37° C. in humidified atmosphere of 95% air-5% CO2. Culture medium was changed every 2-3 days and always 24 hours before harvest. RPMI medium, FBS, CellLytic, anti-β-actin, sodium orthovanadate and anisomycin were purchased from Sigma-Aldrich (USA). TNF-α was purchased from R & D Systems (USA). Complete Protease inhibitor cocktail was procured from Roche.
Jurkat cells were preincubated with vehicle or the compound of example 3 (0.1 μM) for 1 hour in a 37° C., CO2 incubator. For MAPK experiments, the cells were stimulated with anisomycin (10 μg/mL) for 30 minutes. SB 203580 was used as a standard (1 μM). For studies pertaining to degradation of IκBα and IκBα (phospho) the cells were stimulated with 0.1 nM TNF-α for 0, 5, 15, 30, 60 and 90 minutes. […] Aliquots of the resulting extracts were analyzed for their protein content using the Coomassie Plus Protein Assay Reagent (Pierce) following manufacturer's instructions. […]

IC50 (IL-6): 10 µM
Compound: CN1CC[C@@H](c2c(O)cc(O)c3c(=O)cc(-c4ccc(C(F)(F)F)cc4Cl)oc23)[C@@H]1CO.Cl [Compound of example 3, (+)-trans-2-(2-Chloro-4-trifluoromethyl-phenyl)-5,7-dihydroxy-8-(2-hydroxymethyl-1-methyl-pyrrolidin-3-yl)-chromen-4-one hydrochloride]
TNFα-induced IkBα phosphorylation and degradation (western blot) (IκBα): blocks TNFα-induced IkBα phosphorylation and degradation
